Assay results taken from patent US9149038B2, “4-amino-6-(heterocyclic)picolinates and 6-amino-2-(heterocyclic)pyrimidine-4-carboxylates and their use as herbicides” (Dow AgroSciences LLC, priority 2013, dated 2015).
Where two headings read alike, the source gives them in different places.

What was measured:
[1] = test system: Key Broadleaf Weed and Crop Species; experiment: Post-Emergent Test II: postemergent herbicidal activity, visual rating after 14 d (Table 7); format: in vivo; conditions: post-emergence, 336 h; for pest or weed control at 35 g/ha: 35 g ai/ha; for pest or weed control at 70 g/ha: 70 g ai/ha; for pest or weed control at 140 g/ha: 140 g ai/ha
Method in brief: (§1)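 Visual 0-100% injury score (0 no injury, 100 complete kill) at 14 d post-spray, relative to untreated plants. Seedlings at 1st-2nd true leaf stage; track sprayer at 187 L/ha, highest rate plus ½×, ¼×, ⅛×, 1/16× serial dilutions. Subirrigated after treatment.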

[2] = test system: Key Grass and Sedge Weeds as well as Grass Crops; experiment: Post-Emergent Test II: postemergent herbicidal activity, visual rating after 14 d (Table 8); format: in vivo; conditions: post-emergence, 336 h; for pest or weed control at 35 g/ha: 35 g ai/ha; for pest or weed control at 70 g/ha: 70 g ai/ha; for pest or weed control at 140 g/ha: 140 g ai/ha
Method in brief: as §1

[3] = lambsquarters (Chenopodium album), read-out: Visual Growth Reduction (%) 14 Days After Application CHEAL
[4] = oilseed rape, canola (Brassica napus), read-out: Visual Growth Reduction (%) 14 Days After Application BRSNN
[5] = redroot pigweed (Amaranthus retroflexus), read-out: Visual Growth Reduction (%) 14 Days After Application AMARE
[6] = sunflower (Helianthus annuus), read-out: Visual Growth Reduction (%) 14 Days After Application HELAN
[7] = velvetleaf (Abutilon theophrasti), read-out: Visual Growth Reduction (%) 14 Days After Application ABUTH
[8] = wild poinsettia (Euphorbia heterophylla), read-out: Visual Growth Reduction (%) 14 Days After Application EPHHL
[9] = barnyardgrass (Echinochloa crus-galli), read-out: Visual Growth Reduction (%) 14 Days After Application ECHCG
[10] = giant foxtail (Setaria faberi), read-out: Visual Growth Reduction (%) 14 Days After Application SETFA
[11] = maize, corn (Zea mays), read-out: Visual Growth Reduction (%) 14 Days After Application ZEAMX
[12] = rice (Oryza sativa), read-out: Visual Growth Reduction (%) 14 Days After Application ORYSA
[13] = wheat, spring (Triticum aestivum), read-out: Visual Growth Reduction (%) 14 Days After Application TRZAS
[14] = yellow nutsedge (Cyperus esculentus), read-out: Visual Growth Reduction (%) 14 Days After Application CYPES
[15] = ABUTH: velvetleaf (Abutilon theophrasti), read-out: Visual Growth Reduction (%) 14 Days After Application ABUTH
[16] = AMARE: redroot pigweed (Amaranthus retroflexus), read-out: Visual Growth Reduction (%) 14 Days After Application AMARE
[17] = BRSNN: oilseed rape, canola (Brassica napus), read-out: Visual Growth Reduction (%) 14 Days After Application BRSNN
[18] = CHEAL: lambsquarters (Chenopodium album), read-out: Visual Growth Reduction (%) 14 Days After Application CHEAL
[19] = EPHHL: wild poinsettia (Euphorbia heterophylla), read-out: Visual Growth Reduction (%) 14 Days After Application EPHHL
[20] = HELAN: sunflower (Helianthus annuus), read-out: Visual Growth Reduction (%) 14 Days After Application HELAN
[21] = barnyardgrass (Echinochloa crus-galli), read-out: Visual Growth Reduction (%) 14 Days After Application, ECHCG
[22] = giant foxtail (Setaria faberi), read-out: Visual Growth Reduction (%) 14 Days After Application, SETFA
[23] = maize, corn (Zea mays), read-out: Visual Growth Reduction (%) 14 Days After Application, ZEAMX
[24] = rice (Oryza sativa), read-out: Visual Growth Reduction (%) 14 Days After Application, ORYSA
[25] = wheat, spring (Triticum aestivum), read-out: Visual Growth Reduction (%) 14 Days After Application, TRZAS
[26] = yellow nutsedge (Cyperus esculentus), read-out: Visual Growth Reduction (%) 14 Days After Application, CYPES

Nc1c(F)c(-c2ccc(I)c3c2OC(F)(F)O3)nc(C(=O)O)c1Cl [Compound 81]
95 to 100%: pest or weed control at 140 g/ha [1, 4] | pest or weed control at 35 g/ha [1, 5] | pest or weed control at 70 g/ha [1, 5] | pest or weed control at 140 g/ha [1, 5]
85 to 94%: pest or weed control at 35 g/ha [1, 3] | pest or weed control at 70 g/ha [1, 3] | pest or weed control at 140 g/ha [1, 3] | pest or weed control at 70 g/ha [1, 4] | pest or weed control at 35 g/ha [1, 6] | pest or weed control at 70 g/ha [1, 6] | pest or weed control at 140 g/ha [1, 6]
0 to 29%: pest or weed control at 35 g/ha [1, 7] | pest or weed control at 35 g/ha [1, 8] | pest or weed control at 70 g/ha [1, 8] | pest or weed control at 140 g/ha [1, 8] | pest or weed control at 35 g/ha [2, 9] | pest or weed control at 70 g/ha [2, 9] | pest or weed control at 140 g/ha [2, 9] | pest or weed control at 35 g/ha [2, 10] | pest or weed control at 70 g/ha [2, 10] | pest or weed control at 140 g/ha [2, 10] | pest or weed control at 35 g/ha [2, 11] | pest or weed control at 70 g/ha [2, 11] | pest or weed control at 140 g/ha [2, 11] | pest or weed control at 35 g/ha [2, 12] | pest or weed control at 70 g/ha [2, 12] | pest or weed control at 140 g/ha [2, 12] | pest or weed control at 35 g/ha [2, 13] | pest or weed control at 70 g/ha [2, 13] | pest or weed control at 140 g/ha [2, 13] | pest or weed control at 35 g/ha [2, 14] | pest or weed control at 70 g/ha [2, 14] | pest or weed control at 140 g/ha [2, 14]
60 to 74%: pest or weed control at 70 g/ha [1, 7]
75 to 84%: pest or weed control at 35 g/ha [1, 4] | pest or weed control at 140 g/ha [1, 7]

Nc1c(F)c(-c2ccc(Cl)c3c2OC(F)(F)O3)nc(C(=O)O)c1Cl [Compound 82]
85 to 94%: pest or weed control at 70 g/ha [1, 20] | pest or weed control at 35 g/ha [1, 6]
45 to 59%: pest or weed control at 35 g/ha [2, 11] | pest or weed control at 140 g/ha [2, 26]
30 to 44%: pest or weed control at 35 g/ha [1, 7] | pest or weed control at 70 g/ha [2, 24] | pest or weed control at 140 g/ha [2, 24] | pest or weed control at 70 g/ha [2, 26]
60 to 74%: pest or weed control at 70 g/ha [1, 15] | pest or weed control at 70 g/ha [2, 23] | pest or weed control at 140 g/ha [2, 23] | pest or weed control at 35 g/ha [2, 13] | pest or weed control at 70 g/ha [2, 25]
0 to 29%: pest or weed control at 70 g/ha [1, 19] | pest or weed control at 140 g/ha [1, 19] | pest or weed control at 35 g/ha [1, 8] | pest or weed control at 35 g/ha [2, 9] | pest or weed control at 70 g/ha [2, 21] | pest or weed control at 140 g/ha [2, 21] | pest or weed control at 35 g/ha [2, 10] | pest or weed control at 70 g/ha [2, 22] | pest or weed control at 140 g/ha [2, 22] | pest or weed control at 35 g/ha [2, 12] | pest or weed control at 35 g/ha [2, 14]
75 to 84%: pest or weed control at 140 g/ha [1, 15] | pest or weed control at 140 g/ha [2, 25]
95 to 100%: pest or weed control at 70 g/ha [1, 16] | pest or weed control at 140 g/ha [1, 16] | pest or weed control at 70 g/ha [1, 17] | pest or weed control at 140 g/ha [1, 17] | pest or weed control at 70 g/ha [1, 18] | pest or weed control at 140 g/ha [1, 18] | pest or weed control at 140 g/ha [1, 20] | pest or weed control at 35 g/ha [1, 3] | pest or weed control at 35 g/ha [1, 4] | pest or weed control at 35 g/ha [1, 5]
